Measurements published in ChEMBL document CHEMBL1154013, “Brain-penetrating 2-aminobenzimidazole H(1)-antihistamines for the treatment of insomnia” (Bioorg Med Chem Lett, 2009).

Assays:
[1] = target: Cytochrome P450 2D6 (Homo sapiens, UniProt P10635); assay: Inhibition of CYP2D6; format: ADME
[2] = target: T1, Muscarinic acetylcholine receptor M1 (Homo sapiens, UniProt P11229); assay: Displacement of [3H]N-methyl Scopolamine from human muscarinic M1 receptor expressed in CHO Flp-In cells by liquid scintillation assay; format: cell-based
T1 sequence (P11229 whole entry): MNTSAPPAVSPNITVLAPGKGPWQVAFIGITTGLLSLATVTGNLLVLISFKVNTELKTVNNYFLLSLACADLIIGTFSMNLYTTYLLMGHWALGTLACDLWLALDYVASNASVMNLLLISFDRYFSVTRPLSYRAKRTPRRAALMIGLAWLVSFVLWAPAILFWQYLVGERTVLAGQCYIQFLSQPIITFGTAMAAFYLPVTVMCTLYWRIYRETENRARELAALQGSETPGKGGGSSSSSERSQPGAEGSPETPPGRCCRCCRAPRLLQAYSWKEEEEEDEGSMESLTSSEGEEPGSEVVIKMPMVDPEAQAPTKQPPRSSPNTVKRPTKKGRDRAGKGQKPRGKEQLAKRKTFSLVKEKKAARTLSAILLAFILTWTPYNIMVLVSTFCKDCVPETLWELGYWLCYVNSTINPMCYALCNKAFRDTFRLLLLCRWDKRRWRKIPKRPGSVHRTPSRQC

[3] = target: Histamine H1 receptor (Homo sapiens, UniProt P35367); assay: Displacement of [3H]pyrilamine from human histamine H1 receptor expressed in CHO Flp-In cells by liquid scintillation assay; format: cell-based
[4] = target: T2, Voltage-gated inwardly rectifying potassium channel KCNH2 (Homo sapiens, UniProt Q12809); assay: Displacement of [3H]dofetolide from human ERG channel expressed in HEK293 cells at 37 degC by liquid scintillation assay; format: cell-based
[5] = species on record: Homo sapiens; assay: Selectivity for human muscarinic M1 receptor over human histamine H1 receptor
[6] = target: Cytochrome P450 3A4 (Homo sapiens, UniProt P08684); assay: Inhibition of CYP3A4; format: ADME
[7] = system: Caco-2; assay: Ratio of permeability from apical to basolateral side to basolateral to apical side in human Caco-2 cells; format: ADME, cell-based
[8] = Apparent permeability across human Caco-2 cell membrane; format: ADME, cell-based
[9] = system: Rattus norvegicus; assay: Antihistamine activity in Wistar rat EEG/EMG model assessed as increase in time spent in non rapid eye movement sleep stage at 30 mg/kg, po administered during activity portion of diurnal cycle 6 hrs after lights-off measured in 4 hrs; format: functional
[10] = system: Rattus norvegicus; assay: Antihistamine activity in Wistar rat EEG/EMG model assessed as longest 3 REM bouts at 30 mg/kg, po administered during activity portion of diurnal cycle 6 hrs after lights-off measured in 6 hrs; format: functional
[11] = system: Rattus norvegicus; assay: Antihistamine activity in Wistar rat EEG/EMG model assessed as rapid eye movement sleep stage at 30 mg/kg, po administered during activity portion of diurnal cycle 6 hrs after lights-off measured in 4 hrs; format: functional
[12] = system: Brain; assay: Biodistribution in Sprague-Dawley rat brain at 10 mg/kg, po assessed per gram of tissue after 4 hrs; conditions: in vivo
[13] = Ratio of drug level in brain to plasma in rat at 10 mg/kg, po after 4 hrs; format: ADME, organism-based; design: dose 10 mg/kg, route oral
[14] = system: Plasma; assay: Drug level in rat plasma assessed per gram of tissue at 1 mg/kg, iv after 2 hrs; format: ADME, organism-based; design: dose 1 mg/kg, route intravenous; conditions: in vivo
[15] = Bioavailability in Sprague-Dawley rat at 5 mg/kg, iv; format: ADME, organism-based; conditions: in vivo, read-out: Drug uptake
[16] = Ratio of drug level in brain to plasma in rat at 1 mg/kg, iv after 2 hrs; format: ADME, organism-based; design: dose 1 mg/kg, route intravenous
[17] = system: Rattus norvegicus; assay: Antihistamine activity in Wistar rat EEG/EMG model assessed as rapid eye movement sleep stage latency at 30 mg/kg, po administered during activity portion of diurnal cycle 6 hrs after lights-off measured in 4 hrs; format: functional
[18] = Clearance in Sprague-Dawley rat at 10 mg/kg, po; format: ADME, organism-based; design: dose 10 mg/kg, route oral; conditions: in vivo
[19] = Drug level in Sprague-Dawley rat plasma at 10 mg/kg, po after 4 hrs; conditions: read-out: Drug uptake
[20] = system: Brain; assay: Biodistribution in rat brain at 1 mg/kg, iv after 2 hrs in presence of triprolidine; format: ADME, organism-based; design: dose 1 mg/kg, route intravenous; conditions: in vivo
[21] = system: Rattus norvegicus; assay: Antihistamine activity in Wistar rat EEG/EMG model assessed as non rapid eye movement sleep stage latency at 30 mg/kg, po administered during activity portion of diurnal cycle 6 hrs after lights-off measured in 4 hrs; format: functional
[22] = system: Rattus norvegicus; assay: Antihistamine activity in Wistar rat EEG/EMG model assessed as longest 3 NREM bouts at 30 mg/kg, po administered during activity portion of diurnal cycle 6 hrs after lights-off measured in 6 hrs; format: functional
[23] = system: Brain; assay: Biodistribution in rat brain assessed per gram of tissue at 1 mg/kg, iv after 2 hrs; format: ADME, organism-based; design: dose 1 mg/kg, route intravenous; conditions: in vivo
[24] = Ratio of drug level in brain to plasma in rat at 30 mg/kg, po after 4 hrs; format: ADME, organism-based; design: dose 30 mg/kg, route oral
[25] = target: T2, Voltage-gated inwardly rectifying potassium channel KCNH2; assay: Inhibition of human ERG channel expressed in HEK293 cells by patch clamp assay; format: cell-based

T2 sequence (Q12809 whole entry): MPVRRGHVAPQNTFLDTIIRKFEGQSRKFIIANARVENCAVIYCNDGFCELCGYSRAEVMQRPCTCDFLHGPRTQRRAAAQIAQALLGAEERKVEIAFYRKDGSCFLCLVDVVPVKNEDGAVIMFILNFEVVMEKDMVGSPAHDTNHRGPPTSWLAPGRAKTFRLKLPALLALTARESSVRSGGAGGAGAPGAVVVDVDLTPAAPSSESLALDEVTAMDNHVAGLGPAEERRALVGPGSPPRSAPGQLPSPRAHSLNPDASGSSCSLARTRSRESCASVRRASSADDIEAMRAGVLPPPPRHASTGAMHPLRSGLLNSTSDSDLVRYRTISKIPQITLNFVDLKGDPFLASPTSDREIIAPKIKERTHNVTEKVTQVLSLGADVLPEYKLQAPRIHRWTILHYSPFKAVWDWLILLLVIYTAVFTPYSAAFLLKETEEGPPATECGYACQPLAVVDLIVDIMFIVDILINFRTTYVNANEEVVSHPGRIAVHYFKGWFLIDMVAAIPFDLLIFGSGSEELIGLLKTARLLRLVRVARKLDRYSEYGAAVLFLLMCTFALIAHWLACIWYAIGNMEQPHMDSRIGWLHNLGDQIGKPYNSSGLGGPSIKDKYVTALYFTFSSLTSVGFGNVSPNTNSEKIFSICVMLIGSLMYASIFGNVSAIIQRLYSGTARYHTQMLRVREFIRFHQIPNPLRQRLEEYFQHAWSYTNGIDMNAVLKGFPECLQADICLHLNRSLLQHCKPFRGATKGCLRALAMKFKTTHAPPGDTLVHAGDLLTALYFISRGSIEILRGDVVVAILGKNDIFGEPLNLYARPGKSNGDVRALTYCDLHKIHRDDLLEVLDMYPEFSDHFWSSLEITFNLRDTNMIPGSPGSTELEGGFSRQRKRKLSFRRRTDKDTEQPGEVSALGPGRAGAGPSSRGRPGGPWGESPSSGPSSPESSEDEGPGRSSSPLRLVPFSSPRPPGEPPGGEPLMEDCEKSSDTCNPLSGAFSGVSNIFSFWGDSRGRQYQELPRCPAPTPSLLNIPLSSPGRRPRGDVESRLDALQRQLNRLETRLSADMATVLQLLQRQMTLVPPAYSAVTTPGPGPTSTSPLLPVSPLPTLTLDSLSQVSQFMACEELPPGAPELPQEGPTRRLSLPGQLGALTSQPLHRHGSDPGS
Cytochrome P450 2D6, sequence (P10635 whole entry): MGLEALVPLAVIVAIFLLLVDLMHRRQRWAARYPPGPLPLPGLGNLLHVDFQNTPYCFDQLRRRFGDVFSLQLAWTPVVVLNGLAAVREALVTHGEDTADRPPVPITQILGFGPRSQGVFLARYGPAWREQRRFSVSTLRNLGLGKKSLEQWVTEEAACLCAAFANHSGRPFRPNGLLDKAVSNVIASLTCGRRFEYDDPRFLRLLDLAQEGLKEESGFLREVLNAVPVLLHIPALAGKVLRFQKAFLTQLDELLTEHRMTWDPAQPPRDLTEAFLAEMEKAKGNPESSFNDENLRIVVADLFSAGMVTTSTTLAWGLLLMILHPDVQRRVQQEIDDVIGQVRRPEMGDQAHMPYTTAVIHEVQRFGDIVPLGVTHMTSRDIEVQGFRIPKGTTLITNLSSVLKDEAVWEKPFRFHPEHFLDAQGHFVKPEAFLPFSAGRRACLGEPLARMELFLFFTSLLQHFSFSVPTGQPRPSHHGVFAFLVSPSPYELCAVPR
Cytochrome P450 3A4, sequence (P08684 whole entry): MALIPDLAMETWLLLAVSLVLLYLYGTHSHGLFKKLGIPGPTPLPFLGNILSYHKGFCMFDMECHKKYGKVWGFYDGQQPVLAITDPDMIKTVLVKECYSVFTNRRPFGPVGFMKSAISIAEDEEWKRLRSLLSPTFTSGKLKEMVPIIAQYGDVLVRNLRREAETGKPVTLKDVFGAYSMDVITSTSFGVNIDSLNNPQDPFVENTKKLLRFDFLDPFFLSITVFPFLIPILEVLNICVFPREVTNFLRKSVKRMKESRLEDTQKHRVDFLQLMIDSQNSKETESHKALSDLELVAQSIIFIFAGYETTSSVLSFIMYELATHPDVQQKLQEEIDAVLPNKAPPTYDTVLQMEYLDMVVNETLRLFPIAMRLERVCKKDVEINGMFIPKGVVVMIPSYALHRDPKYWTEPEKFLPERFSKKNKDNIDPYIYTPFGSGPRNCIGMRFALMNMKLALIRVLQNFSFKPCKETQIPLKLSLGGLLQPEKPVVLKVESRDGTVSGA
Histamine H1 receptor, sequence (P35367 whole entry): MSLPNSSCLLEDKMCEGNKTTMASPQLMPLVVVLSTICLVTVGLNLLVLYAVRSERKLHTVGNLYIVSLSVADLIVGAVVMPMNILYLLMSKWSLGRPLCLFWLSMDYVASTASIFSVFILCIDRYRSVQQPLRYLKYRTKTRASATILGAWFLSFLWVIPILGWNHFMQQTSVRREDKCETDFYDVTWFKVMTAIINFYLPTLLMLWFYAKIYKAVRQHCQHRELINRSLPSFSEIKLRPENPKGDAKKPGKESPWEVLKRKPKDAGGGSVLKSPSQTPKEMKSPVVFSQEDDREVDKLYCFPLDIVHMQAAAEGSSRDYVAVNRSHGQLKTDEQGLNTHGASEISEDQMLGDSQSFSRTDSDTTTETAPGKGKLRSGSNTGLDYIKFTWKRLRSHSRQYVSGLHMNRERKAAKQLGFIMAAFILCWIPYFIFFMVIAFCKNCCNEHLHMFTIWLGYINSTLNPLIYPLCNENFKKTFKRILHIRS

| Structure (SMILES) | Ki ([3]; read-out: Ki) | IC50 ([1]; read-out: IC50) | Ki [4] | Selectivity ratio [5] | IC50 [6] | also measured |
| --- | --- | --- | --- | --- | --- | --- |
| CN(C1CCCCC1)C1CCN(c2nc3ccccc3n2Cc2ccc(F)cc2)CC1 | 2.8 nM |  |  |  |  | IC50 [1]: 2050 nM; Ki ([2]; read-out: Ki): 2740 nM |
| CN(C)CCN(C)C1CCN(c2nc3ccccc3n2Cc2ccc(F)cc2)CC1 | 2.9 nM | 6130 nM | 776 nM | > 1000 | > 5000 nM |  |
| O=C1CCCCN1C1CCN(c2nc3ccccc3n2Cc2ccc(F)cc2)CC1 | 6.6 nM | 4350 nM | > 7500 nM | > 1000 | > 5000 nM | Ratio [7]: 0.6; Papp [8]: 12.4 ×10⁻⁶ cm/s |
| CN(CC1CCCCC1)C1CCN(c2nc3ccccc3n2Cc2ccc(F)cc2)CC1 |  | 360 nM |  |  |  | Ki [2]: 3860 nM; Ki [3]: 4.4 nM |
| Fc1ccc(Cn2c(N3CCC(n4cccn4)CC3)nc3ccccc32)cc1 | 18.3 nM | 1480 nM |  |  | > 5000 nM |  |
| Fc1ccc(Cn2c(N3CCC(NCC4CCOCC4)CC3)nc3ccccc32)cc1 | 4.5 nM | 12100 nM | 426 nM | > 1000 | > 5000 nM |  |
| CN(c1ccccc1)C1CCN(c2nc3ccccc3n2Cc2ccc(F)cc2)CC1 |  | > 20000 nM |  |  |  | Ki [2]: > 10000 nM; Ki [3]: 80.5 nM |
| CN(CC1CCOCC1)C1CCN(c2nc3ccccc3n2Cc2ccc(F)cc2)CC1 |  | 11000 nM |  |  | > 5000 nM | Activity [9]: 47.2%; Time [10]: 0.5 min; Activity [11]: 2.6%; Drug uptake [12]: 94 ng/g; Kp at 4 h [13]: 10; Drug uptake [14]: 19.2 ng/g; bioavailability [15]: 2%; Kp at 2 h [16]: 6.3; Time [17]: 110 min; CL/F [18]: 134 mL/min/kg; concentration at 4 h [19]: 9 ng/mL; Drug uptake [20]: 39.4 ng; Time [21]: 21 min; Time [22]: 11 min; Drug uptake [23]: 104 ng/g |
| CN(C)C1CCN(c2nc3ccccc3n2Cc2ccc(F)cc2)CC1 | 1.8 nM | 12800 nM | 57 nM | > 1000 | > 5000 nM | Drug uptake [14]: 10.9 ng/g; Kp at 2 h [16]: 4.6; Drug uptake [20]: 55.3 ng; Drug uptake [23]: 50 ng/g |
| CN(c1ncccn1)C1CCN(c2nc3ccccc3n2Cc2ccc(F)cc2)CC1 | 75.2 nM |  |  |  |  | IC50 [1]: 1040 nM; Ki ([2]; read-out: Ki): > 10000 nM |
| Fc1ccc(Cn2c(N3CCC(n4cccc4)CC3)nc3ccccc32)cc1 | 59.3 nM | 1530 nM | 157 nM | > 1000 | > 5000 nM |  |
| Cc1ccc(Cn2c(N3CCC(N(C)C)CC3)nc3ccccc32)cc1 | 1.5 nM | 7210 nM | 73 nM | > 1000 | > 5000 nM |  |
| CN(Cc1ccccc1)C1CCN(c2nc3ccccc3n2Cc2ccc(F)cc2)CC1 | 3.6 nM |  |  |  |  | IC50 [1]: 805 nM; Ki ([2]; read-out: Ki): 3580 nM |
| CN(C1CCOCC1)C1CCN(c2nc3ccccc3n2Cc2ccc(F)cc2)CC1 |  | 6360 nM |  |  |  | Drug uptake [14]: 18.1 ng/g; Ki [2]: 14700 nM; Kp at 2 h [16]: 3.5; Ki [3]: 3.3 nM; Drug uptake [20]: 39.4 ng; Drug uptake [23]: 55 ng/g |
| CNC1CCN(c2nc3ccccc3n2Cc2ccc(F)cc2)CC1 | 2.4 nM |  |  |  |  | IC50 [1]: 6660 nM; Ki ([2]; read-out: Ki): 988 nM |
| COc1ccc(Cn2c(N3CCC(N(C)C)CC3)nc3ccccc32)cc1 | 2.4 nM | 6070 nM |  |  | > 5000 nM |  |
| COc1ccc(Cn2c(N3CCC(n4cc(C)cn4)CC3)nc3ccccc32)cc1 | 7.1 nM | 7320 nM | > 5000 nM | > 1000 | > 5000 nM |  |
| Cc1cnn(C2CCN(c3nc4ccccc4n3Cc3ccc(F)cc3)CC2)c1 |  |  |  |  |  | Kp at 4 h [24]: 2.3 |
| CN(c1nccc(=O)[nH]1)C1CCN(c2nc3ccccc3n2Cc2ccc(F)cc2)CC1 [MIZOLASTINE] | 2.7 nM |  | 7260 nM |  |  | IC50 [1]: > 20000 nM; Drug uptake [14]: 6.3 ng/g; Ki ([2]; read-out: Ki): > 10000 nM; Drug uptake [20]: 55.6 ng; IC50 [25]: 441 nM; Drug uptake [23]: 0 ng/g |
| CN(CCc1ccccc1)C1CCN(c2nc3ccccc3n2Cc2ccc(F)cc2)CC1 | 2.4 nM |  |  |  |  | IC50 [1]: 502 nM; Ki ([2]; read-out: Ki): 89 nM |
| COCCN(C)C1CCN(c2nc3ccccc3n2Cc2ccc(F)cc2)CC1 | 2.2 nM | 4440 nM |  |  | > 5000 nM |  |
| COc1ccc(Cn2c(N3CCC(NCC4CCOCC4)CC3)nc3ccccc32)cc1 | 14.1 nM | 16300 nM | 1460 nM | > 1000 | > 5000 nM |  |
| Cc1ccc(/C(=C\CN2CCCC2)c2ccccn2)cc1 [TRIPROLIDINE] |  |  |  |  |  | Drug uptake [14]: 7.1 ng/g; Kp at 2 h [16]: 4.5; Drug uptake [20]: 55.6 ng; Drug uptake [23]: 55.6 ng/g |
| CN(CCO)C1CCN(c2nc3ccccc3n2Cc2ccc(F)cc2)CC1 | 3.2 nM | 35100 nM | 116 nM | > 1000 | > 5000 nM |  |
| Fc1ccc(Cn2c(N3CCC(n4ccnc4)CC3)nc3ccccc32)cc1 | 1.3 nM | 1120 nM | 137 nM | > 1000 | 72 nM |  |
| COc1ccc(Cn2c(N3CCC(N(C)CC4CCOCC4)CC3)nc3ccccc32)cc1 | 14.1 nM | 8180 nM | 102 nM | > 1000 | > 5000 nM |  |
| Cc1ccc(-c2nc3ccc(C)cn3c2CC(=O)N(C)C)cc1 [ZOLPIDEM] |  |  |  |  |  | Activity [9]: 48.3%; Time [10]: 1.4 min; Activity [11]: 0.4%; Time [17]: 186 min; Time [21]: 7 min |
